This passage reports IC50 results from EP4512427A1, “ANTIBODY-DRUG CONJUGATES BASED ON MOLECULAR GLUE DEGRADERS AND USES THEREOF” (Mablink Bioscience, priority 2023, dated 2025).

Test in all cases: In vitro cytotoxicity assay (MTT)
What all share (format): cell-based

One assay concerns BXPC3. The note with it: Homo sapiens, BXPC-3, 144 h, 6 days incubation. An outline of the steps:
(§1)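 Cells were seeded at 1000–10 000 cells/well depending on line, left 24 h at 37°C, then exposed to serial compound dilutions for 6 days at 37°C. MTT was added for 1–4 h, formazan dissolved in acidified isopropanol, absorbance read at 570 nm (reference 690 nm); IC50 versus untreated cells came from dose-response fits.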

The test system of another assay is Caco-2. The conditions noted are these: Homo sapiens, 144 h, 6 days incubation. An outline of the steps:
as §1

The subject of a further assay is HCT-116. The conditions noted are these: Homo sapiens, 144 h, 6 days incubation. The gist of the method:
as §1

A further assay relates to KB-1. The conditions noted are these: Homo sapiens, KB16, 144 h, 6 days incubation. The gist of the method: as §1
The next assay deals with MCF-7. The note with it: Homo sapiens, MCF7, 144 h, 6 days incubation. The gist of the method: as §1

As for `N[C@H]1CC[C@H](Nc2nc(NCc3ccc(-c4ccccn4)cc3)n3ncc(Br)c3n2)CC1` [Compound 2384], the IC50 (in general, the concentration needed to halve the response being measured) in the assay on BXPC3 stood at 1.46 nM; with Caco-2 it was 6.64 nM; in the assay with HCT-116 it was 1.19 nM; with KB-1, 0.38 nM; in the assay on MCF-7, 3.42 nM.
